Reference: ChEMBL document CHEMBL3044741, “Synthesis of novel biologically active methylene derivatives of sydnones” (Med Chem Res, 2013)
Values after ≈ are worked out from the molar mass of the structure shown.

Tests used:
CCRF-CEM = test: Cytotoxicity against human CCRF-CEM assessed as cell growth at high concentration; format: functional
Aspergillus niger = test: Antifungal activity against Aspergillus niger MTCC 282; format: functional
TK-10 = test: Cytotoxicity against human TK10 assessed as cell growth at high concentration; format: functional
SF-539 = test: Cytotoxicity against human SF539 assessed as cell growth at high concentration; format: functional
SW-620 = test: Cytotoxicity against human SW620 assessed as cell growth at high concentration; format: functional
LOX IMVI = test: Cytotoxicity against human LOXIMVI assessed as cell growth at high concentration; format: functional
Human alphaherpesvirus 3 = test: Antiviral activity against thymidine kinase-deficient Varicella-zoster virus infected in HEL cells assessed as reduction in plaque formation; format: functional, organism-based; conditions: Human alphaherpesvirus 3, HEL
MDA-MB-468 = test: Cytotoxicity against human MDA-MB-468 assessed as cell growth at high concentration; format: functional
NCI-H460 = test: Cytotoxicity against human NCI-H460 assessed as cell growth at high concentration; format: functional
Pseudomonas aeruginosa = test: Antibacterial activity against Pseudomonas aeruginosa MTCC 424 at 250 ug/ml after 24 hrs by Kirby-Bauer method; format: functional; conditions: MTCC 424, 24 h, read-out: IZ
Cytomegalovirus = test: Antiviral activity against Cytomegalovirus AD-169 infected in HEL cells assessed as reduction in plaque formation; format: functional, organism-based; conditions: Human betaherpesvirus 5, AD-169, HEL
ACHN = test: Cytotoxicity against human ACHN assessed as cell growth at high concentration; format: functional
SNB-75 = test: Cytotoxicity against human SNB75 assessed as cell growth at high concentration; format: functional
HCT-15 = test: Cytotoxicity against human HCT15 assessed as cell growth at high concentration; format: functional
PC-3 = test: Cytotoxicity against human PC3 assessed as cell growth at high concentration; format: functional
NCI-H322M = test: Cytotoxicity against human NCI-H322M assessed as cell growth at high concentration; format: functional
T47D = test: Cytotoxicity against human T47D assessed as cell growth at high concentration; format: functional
NCI-H23 = test: Cytotoxicity against human NCI-H23 assessed as cell growth at high concentration; format: functional
MOLT-4 = test: Cytotoxicity against human MOLT4 assessed as cell growth at high concentration; format: functional
MDA-MB-435 = test: Cytotoxicity against human MDA-MB-435 assessed as cell growth at high concentration; format: functional
SK-MEL-2 = test: Cytotoxicity against human SK-MEL-2 assessed as cell growth at high concentration; format: functional
COLO 205 = test: Cytotoxicity against human COLO205 assessed as cell growth at high concentration; format: functional
K562 = test: Cytotoxicity against human K562 assessed as cell growth at high concentration; format: functional
[1] = Cytotoxicity against human HEL cells assessed as alteration in cell morphology; format: cell-based
HL-60(TB) = test: Cytotoxicity against human HL-60(TB) assessed as cell growth at high concentration; format: functional

Row | SMILES | Activity (CCRF-CEM) [%] | MIC (Aspergillus niger) [mg/L] | Activity (TK-10) [%] | Activity (SF-539) [%] | Activity (SW-620) [%] | Activity (LOX IMVI) [%] | EC50 (Human alphaherpesvirus 3) [mg/L] | Activity (MDA-MB-468) [%] | Activity (NCI-H460) [%] | zone of inhibition at 250 µg/mL (Pseudomonas aeruginosa) [mm] | EC50 (Cytomegalovirus) [mg/L] | Activity (ACHN) [%] | Activity (SNB-75) [%] | Activity (HCT-15) [%] | Activity (PC-3) [%] | Activity (NCI-H322M) [%] | Activity (T47D) [%] | Activity (NCI-H23) [%] | Activity (MOLT-4) [%] | Activity (MDA-MB-435) [%] | also measured
1 | Cc1ccc(-[n+]2noc([O-])c2CN2CCN(c3cccc(Cl)c3)CC2)cc1 | 72.82 | 500 (≈ 1300 µM) | 119.81 | 92.15 | 92.74 | 99.09 | > 20 | 80.15 | 89.39 | 21 | 15.3 (≈ 39.8 µM) | 87.78 | 99.33 | 77.65 | 70.26 | 106.64 | 72.96 | 95.83 | 88.5 | 100.2 | Activity (SK-MEL-2): 108.26%; Activity (COLO 205): 89.45%; Activity (K562): 53.83%; MCC [1]: 100 µg/mL
2 | Cc1ccc(-[n+]2noc([O-])c2CN2CCNCC2)cc1 | 102.79 | 200 (≈ 729 µM) | 102.68 | 101.2 | 96.29 | 92.56 | > 20 | 101.9 | 95.72 | 23 | > 20 | 92.05 | 145.71 | 102.72 | 88.56 | 103.75 | 106.04 | 101.63 | 117.17 | 103.5 | Activity (SK-MEL-2): 114.56%; Activity (COLO 205): 99.98%; Activity (K562): 120.22%; MCC [1]: 100 µg/mL; Activity (HL-60(TB)): 118.68%
